Experimental data: publication PMC3163566, “Combined analysis of transcriptome and metabolite data reveals extensive differences between black and brown nearly-isogenic soybean (Glycine max) seed coats enabling the identification of pigment isogenes” (BMC Genomics, 2011)

Columns and labels:
OMT5 = target: T1, OMT5 (Glycine max, UniProt F2YBA9); assay: HPLC-DAD and HPLC-MS/MS product detection; format: biochemical; conditions: methyl acceptor; SAM 100 uM, MgCl2 150 uM, Tris pH 7.5, 35 °C, 1 h; product peonidin-3-O-glucoside
T1 construct: full-length CDS, N-terminal His6 tag (pET-14b), E. coli BL21(DE3) pLysS, IMAC purified; primers based on mRNA BT098523
T1 sequence (F2YBA9 1-248): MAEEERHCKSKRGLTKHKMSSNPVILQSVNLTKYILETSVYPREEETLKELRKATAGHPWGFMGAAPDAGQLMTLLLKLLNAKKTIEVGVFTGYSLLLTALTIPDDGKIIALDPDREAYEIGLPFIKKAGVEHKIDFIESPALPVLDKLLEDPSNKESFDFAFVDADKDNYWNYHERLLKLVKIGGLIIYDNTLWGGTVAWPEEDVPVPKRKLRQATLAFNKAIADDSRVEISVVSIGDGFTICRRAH

UGT78K2 = target: T2, UGT78K2 (Glycine max, UniProt G0WMC8); assay: HPLC-DAD and HPLC-MS/MS product detection; format: biochemical; conditions: glucose acceptor; 5 mM UDP-glucose; 30 °C, 5 min; product cyanidin-3-O-glucoside
T2 construct: full-length CDS, N-terminal His6 tag (pET-14b), E. coli BL21(DE3) pLysS, IMAC purified
T2 sequence (G0WMC8 1-447): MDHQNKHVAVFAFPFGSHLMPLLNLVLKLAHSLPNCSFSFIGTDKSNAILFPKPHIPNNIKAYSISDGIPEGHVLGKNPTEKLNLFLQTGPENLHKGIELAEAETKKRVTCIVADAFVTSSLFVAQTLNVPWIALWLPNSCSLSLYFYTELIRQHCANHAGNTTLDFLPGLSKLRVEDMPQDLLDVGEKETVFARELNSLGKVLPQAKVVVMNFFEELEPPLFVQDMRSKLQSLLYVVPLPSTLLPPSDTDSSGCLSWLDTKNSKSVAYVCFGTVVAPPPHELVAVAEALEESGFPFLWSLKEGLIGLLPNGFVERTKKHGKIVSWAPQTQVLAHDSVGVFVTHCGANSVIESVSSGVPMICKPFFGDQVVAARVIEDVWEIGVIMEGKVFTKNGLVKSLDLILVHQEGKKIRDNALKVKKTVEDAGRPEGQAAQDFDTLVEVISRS

| Compound | HPLC-DAD and HPLC-MS/MS product detection (OMT5) | HPLC-DAD and HPLC-MS/MS product detection (UGT78K2) |
| --- | --- | --- |
| OC[C@H]1O[C@@H](Oc2cc3c(O)cc(O)cc3[o+]c2-c2ccc(O)c(O)c2)[C@H](O)[C@@H](O)[C@@H]1O [cyanidin-3-O-glucoside] | methyl donor and cyanidin-3-O-glucoside as the acceptor, the recombinant enzyme transferred a methyl group | – |
| Oc1cc(O)c2cc(O)c(-c3ccc(O)c(O)c3)[o+]c2c1 [cyanidin] | – | the recombinant enzyme transferred glucose to the 3-position of cyanidin to form cyanidin-3-O-glucoside |
